Patent US11214803B2, “Modulators of YAP1 expression” (Ionis Pharmaceuticals, Inc., priority 2019, dated 2022)
Strand notation (5' to 3'): a small letter for the sugar, then the base; units joined by * are phosphorothioate-linked, units joined directly phosphodiester-linked; [ ] holds rarer units or linkages, { } end groups; capitals alone tell only the bases. k = constrained ethyl (cEt); [5mC] = 5-methylcytosine; d = 2'-deoxy (DNA)

Key:
[1] = test system: Yap1 mRNA; test: Dose-dependent inhibition of human Yap1 in A-431 cells (Example 7, 10,000 cells per well, RTS36584); format: cell-based; conditions: free uptake; for Yap1 mRNA, % UTC: A-431 cells 10,000 cells per well, 48 hours
How it was run: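 A-431 cells at 10,000 per well received modified oligonucleotides by free uptake at several doses. After about 48 hours, Yap1 mRNA was quantified with primer-probe set RTS36584, normalized to RIBOGREEN total RNA and expressed as % untreated control. IC50 came from linear regression on a log/linear plot.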

[2] = Tolerability in Balb/c mice, body and organ weights (Example 12); format: in vivo; conditions: male Balb/c mice, 50 mg/kg s.c. twice a week for four weeks (8 treatments), end of study (day 26)
Protocol: (§1) Groups of male Balb/c mice at 6-7 weeks of age (obtained from Taconic) were injected subcutaneously twice a week for four weeks (for a total of 8 treatments) with 50 mg/kg of modified oligonucleotides. One group of male Balb/c mice was injected with PBS. Mice were euthanized on day 26 post start of treatment (24 hours following the final administration).
Body weights of Balb/c mice were measured at the end of the study, and the average body weight for each group is presented in the table below. Modified oligonucleotides that caused any changes in organ weights outside the expected range for modified oligonucleotides were excluded from further studies.

[3] = Tolerability in Balb/c mice, plasma chemistry markers (Example 12); format: in vivo; conditions: 50 mg/kg subcutaneously twice a week for four weeks
Protocol: Balb/c mice were treated with modified oligonucleotides selected from studies described above and evaluated for changes in the levels of various plasma chemistry markers.
as §1

[4] = test system: Yap1 mRNA; test: Antisense inhibition of human Yap1 in A-431 cells by cEt gapmers, single dose (Example 1, RTS4814); format: cell-based
How it was run: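 Free uptake of 2,000 nM 3-10-3 cEt gapmer (16-mer, full phosphorothioate, 5-methylcytosines) in A-431 cells for ~48 h. Yap1 mRNA quantified by qRT-PCR with set RTS4814, normalized to total RNA (RiboGreen), and expressed as % of untreated control; asterisked values target the amplicon region.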

[5] = test system: Yap1 mRNA; test: Antisense inhibition of human Yap1 in A-431 cells by cEt gapmers, single dose (Example 3, RTS36584); format: cell-based; conditions: A-431 cells, 5,000 cells per well
How it was run: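 Values are % untreated control: Yap1 mRNA by quantitative RT-PCR (RTS36584), normalized to total RNA by RiboGreen. Before RNA isolation, 5,000 A-431 cells per well were exposed ~48 h to 2,000 nM 16-mer cEt gapmer, delivered without transfection reagent.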

[6] = test system: Yap1 mRNA; test: Antisense inhibition of human Yap1 in SNU-449 cells by modified oligonucleotides, single dose (Example 5, RTS36584); format: cell-based
How it was run: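 Values are % of untreated control: Yap1 mRNA by quantitative RT-PCR (RTS36584), normalized to RIBOGREEN total RNA. Oligonucleotides were dosed at 2,000 nM, free uptake, in SNU-449 cells, with roughly 48 h exposure before RNA isolation.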

[7] = A-431 cells, 5,000 cells per well, free uptake, 2,000 nM modified oligonucleotide, approx. 48 hours, RTS4814, normalized to RIBOGREEN, Table 3
[8] = Table 1, A-431 cells, free uptake, 2,000 nM, approximately 48 hours, RTS4814, Yap1 mRNA relative to untreated control cells
[9] = Table 2, A-431 cells, free uptake, 2,000 nM, approximately 48 hours, RTS4814, Yap1 mRNA relative to untreated control cells

Substance: 958375 (antisense kA*kA*kA*dG*d[5mC]*d[5mC]*dT*dT*dA*dG*dA*dG*dT*k[5mC]*kA*kA) [compound 958375]
- Yap1 mRNA, % UTC ([1]; Table 56, 15.6 nM): 74 % UTC
- Yap1 mRNA, % UTC ([1]; Table 56, 62.5 nM): 35 % UTC
- Yap1 mRNA, % UTC ([1]; Table 56, 4000.00 nM): 5 % UTC
- IC50 ([1]; Table 56, A-431 cells 10,000 cells per well): 40 nM
- Kidney weight [2]: 0.39 g
- Liver weight [2]: 2.00 g
- Spleen weight [2]: 0.12 g
- body weight [2]: 23 g
- ALT [3]: 2736 U/L
- AST [3]: 3013 U/L
- BUN [3]: 22 mg/dL
- TBIL [3]: 0.43 mg/dL

Substance: 715483 (antisense k[5mC]*kT*k[5mC]*dT*dT*dT*dG*dG*dA*dA*dA*d[5mC]*d[5mC]*kA*kT*kT) [Compound 715483]
- YAP1 (% UTC) [4, 7]: 15 % UTC
- YAP1 (% UTC) ([5]; Table 8, free uptake, 2,000 nM, approximately 48 hours, RTS36584, normalized to RIBOGREEN, Yap1 mRNA relative to untreated control cells): 2 % UTC
- YAP1 (% UTC) ([5]; Table 9, free uptake, 2,000 nM, approximately 48 hours, RTS36584, normalized to RIBOGREEN, Yap1 mRNA relative to untreated control cells): 1 % UTC
- YAP1 (% UTC) ([5]; Table 10, free uptake, 2,000 nM oligonucleotide, approx. 48 hours, primer probe set RTS36584, Yap1 mRNA normalized to RIBOGREEN, percent of untreated control): 2 % UTC
- YAP1 (% UTC) ([5]; Table 11, free uptake, 2,000 nM oligonucleotide, approx. 48 hours, primer probe set RTS36584, Yap1 mRNA normalized to RIBOGREEN, percent of untreated control): 1 % UTC
- YAP1 (% UTC) ([5]; Table 12, free uptake, 2,000 nM modified oligonucleotide, approx. 48 hours, RTS36584, normalized to RIBOGREEN, Yap1 mRNA relative to untreated control cells): 1 % UTC
- YAP1 (% UTC) ([5]; Table 13, free uptake, 2,000 nM modified oligonucleotide, approx. 48 hours, RTS36584, normalized to RIBOGREEN, Yap1 mRNA relative to untreated control cells): 1 % UTC

Substance: 715487 (antisense kA*kT*kT*dA*d[5mC]*dT*dT*d[5mC]*dA*dT*dA*dG*d[5mC]*kT*kT*kA) [Compound 715487]
- YAP1 (% UTC) [4, 8]: 22 % UTC
- YAP1 (% UTC) ([6]; Table 39, SNU-449 cells, 10,000 cells per well, free uptake, 2,000 nM oligonucleotide, approx. 48 hours, RTS36584, normalized to RIBOGREEN, Yap1 mRNA relative to untreated control): 12 % UTC
- YAP1 (% UTC) ([6]; Table 40 (separate experiment), SNU-449 cells, 10,000 cells per well, free uptake, 2,000 nM oligonucleotide, approx. 48 hours, RTS36584, normalized to RIBOGREEN, Yap1 mRNA relative to untreated control): 28 % UTC
- YAP1 (% UTC) ([6]; Table 41, SNU-449 cells, 10,000 cells per well, free uptake, 2,000 nM modified oligonucleotide, approximately 48 hours, RTS36584, normalized to RIBOGREEN, Yap1 mRNA relative to untreated control cells): 28 % UTC
- YAP1 (% UTC) ([6]; Table 42 (separate experiment), SNU-449 cells, 10,000 cells per well, free uptake, 2,000 nM modified oligonucleotide, approximately 48 hours, RTS36584, normalized to RIBOGREEN, Yap1 mRNA relative to untreated control cells): 29 % UTC
- YAP1 (% UTC) ([6]; Table 43 experiment, SNU-449 cells, 10,000 cells per well, free uptake, 2,000 nM, approximately 48 hours, RTS36584, Yap1 mRNA normalized to RIBOGREEN, relative to untreated control cells): 25 % UTC
- YAP1 (% UTC) ([6]; Table 44 experiment, SNU-449 cells, 10,000 cells per well, free uptake, 2,000 nM, approximately 48 hours, RTS36584, Yap1 mRNA normalized to RIBOGREEN, relative to untreated control cells): 18 % UTC
- YAP1 (% UTC) ([6]; Table 45, Yap1 mRNA as percent of untreated control, SNU-449 cells, single dose): 28 % UTC
- YAP1 (% UT) ([6]; Table 46, Yap1 mRNA as percent of untreated control, SNU-449 cells, single dose): 25 % UT
- YAP1 (% UT) ([6]; Table 48, Yap1 mRNA level relative to untreated control, modified oligonucleotides targeting SEQ ID NO.: 1 and 2): 34 % UT
- YAP1 (% UT) ([6]; Table 49, Yap1 mRNA level relative to untreated control, modified oligonucleotides targeting SEQ ID NO.: 1 and 2): 30 % UT
- YAP1 (% UT) ([6]; Table 50, Yap1 mRNA remaining as percent of untreated control (UT), SNU-449 cells, single dose): 31 % UT
- YAP1 (% UT) ([6]; Table 51, Yap1 mRNA remaining as percent of untreated control (UT), SNU-449 cells, single dose): 24 % UT
- YAP1 (% UT) ([6]; Table 52, Yap1 mRNA, modified oligonucleotides targeting SEQ ID NO: 1 and 2): 29 % UT
- YAP1 (% UT) ([6]; Yap1 mRNA, percent of untreated control, modified oligonucleotides targeting SEQ ID NO: 1 and 2, Table 47): 39 % UT

Substance: 715436 (antisense kT*kG*kG*d[5mC]*dA*dA*dA*dA*d[5mC]*dG*dA*dG*dG*kG*kT*k[5mC]) [Compound 715436]
- YAP1 (% UTC) [4, 8]: 126 % UTC

Substance: 715609 (antisense kT*kG*kT*dG*dT*dA*dG*dG*d[5mC]*dT*dG*dA*d[5mC]*kT*kT*kA) [Compound 715609]
- YAP1 (% UTC) [4, 7]: 56 % UTC

Substance: 715521 (kT*k[5mC]*kT*dT*d[5mC]*dT*dT*dT*d[5mC]*d[5mC]*dA*d[5mC]*dT*k[5mC]*kA*kA; antisense) [Compound 715521]
- YAP1 (% UTC) [4, 9]: 72 % UTC

Substance: 715628 (antisense kG*k[5mC]*k[5mC]*dT*dA*d[5mC]*d[5mC]*dT*dG*dA*d[5mC]*dA*dT*kT*kT*kT) [Compound 715628]
- YAP1 (% UTC) [4, 8]: 114 % UTC

Substance: 715407 (kG*kG*k[5mC]*dT*dT*dG*dA*dA*dG*dA*dA*dG*dG*kA*kG*kT; antisense) [Compound 715407]
- YAP1 (% UTC) [4, 9]: 53 % UTC

Substance: 715417 (kG*kA*kG*d[5mC]*dT*d[5mC]*dG*dA*dA*d[5mC]*dA*dT*dG*k[5mC]*kT*kG; antisense) [Compound 715417]
- YAP1 (% UTC) [4, 7]: 104 % UTC

Substance: 715603 (antisense kG*k[5mC]*kA*d[5mC]*dA*dG*dA*dA*dT*dT*d[5mC]*d[5mC]*d[5mC]*kA*kA*kG) [Compound 715603]
- YAP1 (% UTC) [4, 7]: 106 % UTC

Substance: 715402 (kA*kG*kG*dA*dG*dT*d[5mC]*dG*dG*dG*d[5mC]*dA*dG*k[5mC]*kT*kT; antisense) [Compound 715402]
- YAP1 (% UTC) [4, 7]: 59 % UTC

Substance: 715466 (antisense k[5mC]*kA*kA*dG*dG*dT*d[5mC]*d[5mC]*dA*d[5mC]*dA*dT*dT*kT*kG*kT) [Compound 715466]
- YAP1 (% UTC) [4, 8]: 83 % UTC
